Experiments:
Assay in all cases: PK/LDH coupled ATPase assay, NADH absorbance, Hill fit
Assay type in all cases: biochemical
[1] = target: T1, Smc (Bs Smc) (Bacillus subtilis, UniProt P51834, DEL396-486/DEL685-775); settings: 50 mM HEPES-KOH pH 7.5, 50 mM NaCl, 2 mM MgCl2, 25 C, 0.3 uM protein, ATP varied; Mini-Smc(1-395, 487-684, 776-1186), construct taken from plasmid pSG2917
T1 construct: full length 1186 residues, untagged, E. coli BL21-Gold(DE3), homodimer; plasmid pSG1497 pET-22b Smc; no ScpAB or DNA

[2] = target: T2, Smc (Bs Smc) (Bacillus subtilis, UniProt P51834, DEL436-486/DEL685-735); settings: 50 mM HEPES-KOH pH 7.5, 50 mM NaCl, 2 mM MgCl2, 25 C, 0.3 uM protein, ATP varied; Mini-Smc(1-435, 487-684, 736-1186), construct taken from plasmid pSG2915
T2 construct: full length 1186 residues, untagged, E. coli BL21-Gold(DE3), homodimer; plasmid pSG1497 pET-22b Smc; no ScpAB or DNA

[3] = target: T3, Smc (Bs Smc) (Bacillus subtilis, UniProt P51834, DEL439-486/DEL685-732); settings: 50 mM HEPES-KOH pH 7.5, 50 mM NaCl, 2 mM MgCl2, 25 C, 0.3 uM protein, ATP varied; Mini-Smc(1-438, 487-684, 733-1186), construct taken from plasmid pSG2914
T3 construct: full length 1186 residues, untagged, E. coli BL21-Gold(DE3), homodimer; plasmid pSG1497 pET-22b Smc; no ScpAB or DNA

[4] = target: T4, Smc (Bs Smc) (Bacillus subtilis, UniProt P51834, DEL400-486/DEL685-771); settings: 50 mM HEPES-KOH pH 7.5, 50 mM NaCl, 2 mM MgCl2, 25 C, 0.3 uM protein, ATP varied; Mini-Smc(1-399, 487-684, 772-1186), construct taken from plasmid pSG2916
T4 construct: full length 1186 residues, untagged, E. coli BL21-Gold(DE3), homodimer; plasmid pSG1497 pET-22b Smc; no ScpAB or DNA

[5] = target: T5, Smc (Bs Smc) (Bacillus subtilis, UniProt P51834); settings: 50 mM HEPES-KOH pH 7.5, 50 mM NaCl, 2 mM MgCl2, 25 C, 0.3 uM protein, ATP varied; peptide insertion, plasmid pSG2965; matching strain printed as smc(1-394)-SGPGGGGGRQQAS-smc(395-1186)
T5 construct: full length 1186 residues, untagged, E. coli BL21-Gold(DE3), homodimer; plasmid pSG1497 pET-22b Smc; no ScpAB or DNA

[6] = target: T5, Smc (Bs Smc); settings: 50 mM HEPES-KOH pH 7.5, 50 mM NaCl, 2 mM MgCl2, 25 C, 0.3 uM protein, ATP varied; peptide insertion, plasmid pSG2966; matching strain printed as smc(1-479)-SGPGGGGGRQYQA-smc(480-1186)

T5 sequence (P51834 whole entry): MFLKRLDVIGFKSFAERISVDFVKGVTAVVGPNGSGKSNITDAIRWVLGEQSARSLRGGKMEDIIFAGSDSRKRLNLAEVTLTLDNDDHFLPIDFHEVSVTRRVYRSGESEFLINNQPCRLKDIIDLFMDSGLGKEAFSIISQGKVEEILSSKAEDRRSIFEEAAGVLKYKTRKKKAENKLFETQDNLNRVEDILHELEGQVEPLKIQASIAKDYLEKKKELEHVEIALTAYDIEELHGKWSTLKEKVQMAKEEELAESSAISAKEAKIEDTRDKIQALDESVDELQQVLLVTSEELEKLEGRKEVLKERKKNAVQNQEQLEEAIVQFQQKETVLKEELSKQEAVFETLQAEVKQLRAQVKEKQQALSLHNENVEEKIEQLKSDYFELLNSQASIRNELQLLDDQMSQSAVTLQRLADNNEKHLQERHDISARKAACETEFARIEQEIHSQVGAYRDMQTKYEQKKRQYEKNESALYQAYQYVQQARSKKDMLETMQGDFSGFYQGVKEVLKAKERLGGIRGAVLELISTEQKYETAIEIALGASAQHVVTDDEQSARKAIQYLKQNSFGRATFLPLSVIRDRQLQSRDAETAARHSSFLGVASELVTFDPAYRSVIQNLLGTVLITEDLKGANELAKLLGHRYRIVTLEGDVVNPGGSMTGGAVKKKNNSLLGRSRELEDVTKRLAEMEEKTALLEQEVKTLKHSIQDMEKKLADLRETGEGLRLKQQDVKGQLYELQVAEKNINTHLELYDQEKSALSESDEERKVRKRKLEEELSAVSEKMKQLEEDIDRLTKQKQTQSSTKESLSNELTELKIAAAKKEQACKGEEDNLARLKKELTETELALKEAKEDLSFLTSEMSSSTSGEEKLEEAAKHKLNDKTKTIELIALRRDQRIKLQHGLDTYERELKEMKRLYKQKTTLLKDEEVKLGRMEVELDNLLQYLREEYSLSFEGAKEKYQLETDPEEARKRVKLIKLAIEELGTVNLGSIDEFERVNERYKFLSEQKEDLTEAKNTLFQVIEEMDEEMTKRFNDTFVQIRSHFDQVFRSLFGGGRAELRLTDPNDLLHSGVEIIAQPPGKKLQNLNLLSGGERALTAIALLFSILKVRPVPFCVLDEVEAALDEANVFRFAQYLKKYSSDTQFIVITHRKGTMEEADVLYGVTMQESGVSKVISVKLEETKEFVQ
T4 sequence (P51834 other isoform, or with tags, fused parts or gaps DEL400-486/DEL685-771): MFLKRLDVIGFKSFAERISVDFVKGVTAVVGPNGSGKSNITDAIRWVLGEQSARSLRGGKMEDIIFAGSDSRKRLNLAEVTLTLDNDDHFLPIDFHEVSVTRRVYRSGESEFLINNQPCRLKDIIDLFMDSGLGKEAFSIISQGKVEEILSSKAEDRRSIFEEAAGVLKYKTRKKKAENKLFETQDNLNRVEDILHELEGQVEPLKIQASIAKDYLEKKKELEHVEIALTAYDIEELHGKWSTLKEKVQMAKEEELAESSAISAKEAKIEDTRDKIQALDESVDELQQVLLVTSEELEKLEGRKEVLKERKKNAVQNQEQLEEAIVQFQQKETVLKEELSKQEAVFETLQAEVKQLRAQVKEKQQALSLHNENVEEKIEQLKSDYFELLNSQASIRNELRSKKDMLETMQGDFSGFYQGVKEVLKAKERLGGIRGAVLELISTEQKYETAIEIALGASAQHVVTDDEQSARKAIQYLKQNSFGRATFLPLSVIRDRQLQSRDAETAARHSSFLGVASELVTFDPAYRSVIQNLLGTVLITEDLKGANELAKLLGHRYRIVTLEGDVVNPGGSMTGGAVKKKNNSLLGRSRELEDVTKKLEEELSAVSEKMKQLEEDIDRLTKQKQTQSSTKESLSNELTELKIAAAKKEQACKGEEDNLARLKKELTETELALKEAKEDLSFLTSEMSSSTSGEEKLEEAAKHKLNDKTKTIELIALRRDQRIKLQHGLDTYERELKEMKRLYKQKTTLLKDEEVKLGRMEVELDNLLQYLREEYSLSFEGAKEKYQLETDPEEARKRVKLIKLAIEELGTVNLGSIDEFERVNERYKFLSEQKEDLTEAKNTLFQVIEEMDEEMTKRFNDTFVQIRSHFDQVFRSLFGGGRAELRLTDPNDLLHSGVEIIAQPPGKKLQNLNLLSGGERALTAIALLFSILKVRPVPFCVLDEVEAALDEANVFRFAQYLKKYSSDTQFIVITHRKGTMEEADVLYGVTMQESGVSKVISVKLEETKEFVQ
T1 sequence (P51834 other isoform, or with tags, fused parts or gaps DEL396-486/DEL685-775): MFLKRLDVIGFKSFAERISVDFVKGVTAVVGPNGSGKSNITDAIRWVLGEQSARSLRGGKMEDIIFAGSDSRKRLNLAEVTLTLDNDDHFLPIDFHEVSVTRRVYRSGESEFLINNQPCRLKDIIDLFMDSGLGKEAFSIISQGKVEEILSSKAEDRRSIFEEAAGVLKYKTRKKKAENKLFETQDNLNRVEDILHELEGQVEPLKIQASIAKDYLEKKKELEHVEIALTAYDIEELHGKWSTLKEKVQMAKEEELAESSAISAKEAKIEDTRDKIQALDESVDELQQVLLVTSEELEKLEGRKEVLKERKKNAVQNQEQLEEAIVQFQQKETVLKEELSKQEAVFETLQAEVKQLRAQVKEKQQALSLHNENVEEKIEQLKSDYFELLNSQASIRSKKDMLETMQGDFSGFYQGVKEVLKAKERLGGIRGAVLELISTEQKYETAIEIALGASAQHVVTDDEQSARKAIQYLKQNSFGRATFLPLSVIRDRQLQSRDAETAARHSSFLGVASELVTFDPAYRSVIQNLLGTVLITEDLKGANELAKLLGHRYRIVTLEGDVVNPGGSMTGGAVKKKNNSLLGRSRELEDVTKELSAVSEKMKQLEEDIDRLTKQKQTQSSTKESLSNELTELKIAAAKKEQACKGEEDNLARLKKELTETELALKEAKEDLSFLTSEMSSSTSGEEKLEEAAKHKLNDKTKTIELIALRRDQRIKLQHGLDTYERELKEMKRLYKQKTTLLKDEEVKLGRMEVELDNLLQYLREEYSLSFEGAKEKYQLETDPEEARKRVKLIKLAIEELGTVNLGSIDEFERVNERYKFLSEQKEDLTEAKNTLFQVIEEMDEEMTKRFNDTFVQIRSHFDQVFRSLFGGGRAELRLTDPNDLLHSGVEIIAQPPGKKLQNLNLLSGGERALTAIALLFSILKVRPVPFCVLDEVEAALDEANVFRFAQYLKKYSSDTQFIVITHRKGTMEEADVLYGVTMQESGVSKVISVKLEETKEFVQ
T2 sequence (P51834 other isoform, or with tags, fused parts or gaps DEL436-486/DEL685-735): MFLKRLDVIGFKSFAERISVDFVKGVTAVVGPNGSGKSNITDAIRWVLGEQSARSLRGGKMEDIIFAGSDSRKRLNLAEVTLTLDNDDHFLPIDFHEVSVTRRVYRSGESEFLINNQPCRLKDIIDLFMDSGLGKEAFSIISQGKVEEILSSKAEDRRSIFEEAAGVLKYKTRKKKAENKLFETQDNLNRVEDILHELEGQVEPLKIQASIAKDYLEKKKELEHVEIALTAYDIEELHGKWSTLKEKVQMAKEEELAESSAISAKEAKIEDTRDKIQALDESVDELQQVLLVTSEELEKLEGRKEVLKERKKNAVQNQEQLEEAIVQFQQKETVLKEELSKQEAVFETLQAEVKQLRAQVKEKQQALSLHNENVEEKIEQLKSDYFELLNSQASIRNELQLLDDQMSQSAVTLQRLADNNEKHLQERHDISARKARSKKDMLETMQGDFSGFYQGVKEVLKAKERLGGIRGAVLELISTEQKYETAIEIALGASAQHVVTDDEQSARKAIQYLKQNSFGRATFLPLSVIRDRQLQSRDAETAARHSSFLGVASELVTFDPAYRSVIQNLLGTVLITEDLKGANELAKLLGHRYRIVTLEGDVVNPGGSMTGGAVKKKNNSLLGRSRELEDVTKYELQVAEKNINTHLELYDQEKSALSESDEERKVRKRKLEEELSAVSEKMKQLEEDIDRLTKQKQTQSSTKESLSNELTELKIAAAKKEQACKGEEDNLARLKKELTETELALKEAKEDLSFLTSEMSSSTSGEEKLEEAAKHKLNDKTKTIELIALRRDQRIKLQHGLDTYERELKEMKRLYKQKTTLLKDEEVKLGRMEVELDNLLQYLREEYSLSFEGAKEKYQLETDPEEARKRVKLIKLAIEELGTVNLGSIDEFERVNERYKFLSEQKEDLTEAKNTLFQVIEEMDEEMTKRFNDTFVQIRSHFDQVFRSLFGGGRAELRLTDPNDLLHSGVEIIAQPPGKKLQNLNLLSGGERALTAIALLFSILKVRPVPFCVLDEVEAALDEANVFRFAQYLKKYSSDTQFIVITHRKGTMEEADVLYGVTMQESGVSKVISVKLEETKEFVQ

SMILES: Nc1ncnc2c1ncn2[C@@H]1O[C@H](COP(=O)(O)OP(=O)(O)OP(=O)(O)O)[C@@H](O)[C@H]1O [ATP]
- K0.5 [1]: We then purified Mini-Smc proteins to measure their ability to hydrolyze ATP in vitro
- K0.5 [2]: We then purified Mini-Smc proteins to measure their ability to hydrolyze ATP in vitro
- K0.5 [3]: We then purified Mini-Smc proteins to measure their ability to hydrolyze ATP in vitro
- K0.5 [4]: We then purified Mini-Smc proteins to measure their ability to hydrolyze ATP in vitro
- K0.5 [5]: Smc proteins with peptide insertions are functional ATPases
- K0.5 [6]: Smc proteins with peptide insertions are functional ATPases

Reference: article PMC5344682, “Tuned SMC Arms Drive Chromosomal Loading of Prokaryotic Condensin” (Molecular Cell, 2017)
